Positions of bridges follow the written chain, without caps; N, C: chain ends. Residues, ends and D or L forms follow the SMILES beside them.
How the values were obtained:
[1] = Cytotoxicity against human U937/GTB cells up to 50 uM by fluorescein diacetate-based fluorometric microculture cytotoxicity assay; format: cell-based; conditions: u-937/gtb
Aspergillus fumigatus = assay: Antifungal activity against Aspergillus fumigatus incubated for 5 hrs; format: functional, organism-based
[2] = Stability in human serum assessed as compound remaining after 24 hrs at 37 degC by LC/MS analysis; format: ADME; conditions: read-out: Stability
Erwinia amylovora = assay: Antibacterial activity against Erwinia amylovora incubated for 5 hrs; format: functional, organism-based
[3] = tested on: Pectobacterium carotovorum; assay: Antibacterial activity against Erwinia carotovora incubated for 5 hrs; format: functional, organism-based
Escherichia coli = assay: Antibacterial activity against Escherichia coli ATCC 25922 incubated for 5 hrs; format: functional, organism-based; conditions: ATCC 25922, 5 h
Staphylococcus aureus = assay: Antibacterial activity against Staphylococcus aureus ATCC 29213 incubated for 5 hrs; format: functional, organism-based; conditions: ATCC 29213, 5 h
Pseudomonas aeruginosa = assay: Antibacterial activity against Pseudomonas aeruginosa ATCC 27853 incubated for 5 hrs; format: functional, organism-based; conditions: ATCC 27853, 5 h
Candida albicans = assay: Antifungal activity against Candida albicans ATCC 90028 incubated for 5 hrs; format: functional, organism-based; conditions: ATCC 90028, 5 h

For `CSCC[C@@H]1NC(=O)[C@H](C(C)C)NC(=O)[C@H](CC(C)C)NC(=O)[C@@H]2CSSC[C@@H](C(=O)N[C@@H](CO)C(=O)O)NC(=O)[C@H](Cc3ccccc3)NC(=O)[C@H](CCCCN)NC(=O)[C@H](C(C)C)NC(=O)[C@H](CSSC[C@H](NC(=O)[C@H](CCCNC(=N)N)NC(=O)[C@H](C)N)C(=O)N2)NC(=O)[C@H](C)NC(=O)[C@H](Cc2ccccc2)NC(=O)[C@@H]2CCCN2C(=O)[C@@H]2CCCN2C(=O)[C@H](C(C)C)NC(=O)[C@@H]2CCCN2C1=O` (H-ARCCLVMPVPPFACVKFCS-OH; disulfide 3-14, 4-18), which Activity [1] is on record?
The Activity was “Non-toxic”.

And the EC50 (Aspergillus fumigatus)?
The EC50 was > 160 µM.

And the remaining at 24 h [2]?
The remaining at 24 h was > 95%.

And the EC50 (Erwinia amylovora)?
Its EC50 is > 160 µM.

What about the EC50 [3] of the same molecule?
Its EC50 is > 160 µM.

And the EC50 (Escherichia coli)?
Its EC50 is > 160 µM.

And the EC50 (Staphylococcus aureus)?
The EC50 was > 160 µM.

What about the EC50 (Pseudomonas aeruginosa) of the same molecule?
The EC50 was 27 µM.

What about the EC50 (Candida albicans) of the same molecule?
Its EC50 is > 160 µM.
